From the supplement of paper PMC7017272
± gives the standard deviation of the averaged measurements.

Assays:
Settings in all cases: treatment time: 3 days
[1] = test system: UT-SCC-28; experiment: relative IC50 (midpoint of the fitted curve; maximal inhibition may be below 50%); higher = less potent
Summary of the method: (§1)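 Three growth formats were used for HPV-negative HNSCC cell lines in 384-well plates at 500 cells/well: bare plastic, wells coated with Matrigel or Myogel (500 µg/mL), and embedding in Matrigel or Myogel plus rat collagen I. Compounds were added at five 10-fold concentrations, and after 3 days CellTiter-Glo 2.0 luminescence was recorded and normalised to vehicle (0.1% DMSO) and cell-killing control wells. IC50, maximal inhibition and drug sensitivity score came from percent-inhibition dose–response fitting in the FIMM pipeline.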

[2] = test system: UT-SCC-40; experiment: as above
Summary of the method: as §1

[3] = test system: UT-SCC-106A; experiment: as above
Summary of the method: as §1

[4] = test system: UT-SCC-24B; experiment: as above
Summary of the method: as §1

[5] = test system: UT-SCC-8; experiment: as above
Summary of the method: as §1

[6] = test system: UT-SCC-24A; experiment: maximal % inhibition of viability relative to DMSO; higher = stronger effect
Experimental: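 HNSCC cell lines (500 cells/well, 384-well) were cultured on plastic, on top of (2D) or embedded (3D) in Matrigel or human leiomyoma matrix Myogel (500 ug/mL; Myogel 3D mixed with rat collagen I). Cells were treated for 3 days with 5 ten-fold concentrations of each drug, and viability was read by CellTiter-Glo. Viability was normalised to DMSO (0% inhibition) and 100 uM benzethonium chloride (100% inhibition) controls and fitted with the FIMM DSRT pipeline to give IC50 (nM), maximal % inhibition and the drug sensitivity score (DSS). Suffixes _1/_2/_3 on drug names are replicates.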

[7] = test system: UT-SCC-24A; experiment: drug sensitivity score (DSS); higher = more sensitive
Experimental: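 HNSCC cell lines (500 cells/well, 384-well) were cultured on plastic, on top of (2D) or embedded (3D) in Matrigel or human leiomyoma matrix Myogel (500 ug/mL; Myogel 3D mixed with rat collagen I). Cells were treated for 3 days with 5 ten-fold concentrations of each drug, and viability was read by CellTiter-Glo. Suffixes _1/_2/_3 on drug names are replicates.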

[8] = test system: UT-SCC-44; experiment: maximal % inhibition of viability relative to DMSO; higher = stronger effect
Experimental: (§2)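 HNSCC cell lines (500 cells/well, 384-well) were cultured on plastic, on top of (2D) or embedded (3D) in Matrigel or human leiomyoma matrix Myogel (500 ug/mL; Myogel 3D mixed with rat collagen I). Cells were treated for 3 days with 5 ten-fold concentrations of each drug, and viability was read by CellTiter-Glo. Viability was normalised to DMSO and benzethonium chloride controls and fitted with the FIMM DSRT pipeline to give IC50 (nM), maximal % inhibition and DSS. Suffixes _1/_2/_3 are replicates. Only inhibition-mode (IC50) fits are kept.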

[9] = test system: UT-SCC-28; experiment: as above
Experimental: as §2

[10] = test system: UT-SCC-73; experiment: as above
Experimental: as §2

[11] = test system: UT-SCC-42B; experiment: as above
Experimental: as §2

[12] = test system: UT-SCC-40; experiment: as above
Experimental: as §2

[13] = test system: UT-SCC-42A; experiment: as above
Experimental: as §2

[14] = test system: UT-SCC-81; experiment: as above
Experimental: as §2

[15] = test system: UT-SCC-14; experiment: as above
Experimental: as §2

[16] = test system: UT-SCC-106A; experiment: as above
Experimental: as §2

[17] = test system: UT-SCC-24B; experiment: as above
Experimental: as §2

[18] = test system: UT-SCC-8; experiment: as above
Experimental: as §2

[19] = culture condition: embedded in Matrigel
[20] = culture condition: embedded in Myogel + collagen I
[21] = culture condition: on top of Matrigel
[22] = culture condition: plastic 2D (no matrix)
[23] = culture condition: on top of Myogel

For `COc1ncc(-c2ccc3nccc(-c4ccnnc4)c3c2)cc1NS(=O)(=O)c1ccc(F)cc1F` [Omipalisib], the “relative IC50” value [1, 19] was 2.99 nM, the “relative IC50” value [1, 20] was 12.8 nM and the “relative IC50” value [1, 21] was 5.19 nM. The “relative IC50” value [1, 22] was 5.26 nM, the “relative IC50” value [2, 19] was 5.31 nM and the “relative IC50” value [2, 20] was 9.86 nM. For the same compound, the “relative IC50” value [2, 21] was 5.3 nM, the “relative IC50” value [2, 23] was 12.9 nM and the “relative IC50” value [2, 22] was 11.7 nM. The “relative IC50” value [3, 19] was 4.51 nM, the “relative IC50” value [3, 20] was 10.1 nM and the “relative IC50” value [3, 21] was 5.7 nM. For the same compound, the “relative IC50” value [3, 23] was 15.6 nM, the “relative IC50” value [3, 22] was 5.69 nM and the “relative IC50” value [4, 19] was 11 nM. For the same compound, the “relative IC50” value [4, 20] was 9.4 nM, the “relative IC50” value [4, 21] was 11.6 nM and the “relative IC50” value [4, 23] was 15.8 nM. For the same compound, the “relative IC50” value [4, 22] was 12.8 nM, the “relative IC50” value [5, 19] was 5.05 nM and the “relative IC50” value [5, 21] was 7.5 nM. For the same compound, the “relative IC50” value [5, 23] was 8.01 nM, the “relative IC50” value [5, 22] was 6.97 nM and the “maximal % inhibition of viability” value [6, 19] was 95.2 ± 1.4%. The “maximal % inhibition of viability” value [6, 20] was 89.2 ± 1.7%, the “maximal % inhibition of viability” value [6, 21] was 92 ± 1.5% and the “maximal % inhibition of viability” value [6, 23] was 85.8 ± 0.99%. The “maximal % inhibition of viability” value [6, 22] was 91.6 ± 0.95%, the drug sensitivity score [7, 19] was 27 ± 2.8 DSS and the drug sensitivity score [7, 20] was 22.6 ± 1.6 DSS. The drug sensitivity score [7, 21] was 25.5 ± 1.2 DSS, the drug sensitivity score [7, 23] was 20.4 ± 1.8 DSS and the drug sensitivity score [7, 22] was 25 ± 1.6 DSS. The “maximal % inhibition of viability” value [8, 19] was 52.5 ± 1.9%, the “maximal % inhibition of viability” value [8, 20] was 58.5 ± 5.7% and the “maximal % inhibition of viability” value [8, 21] was 54.8 ± 4.2%. For the same compound, the “maximal % inhibition of viability” value [8, 23] was 62.1 ± 5.8%, the “maximal % inhibition of viability” value [8, 22] was 56 ± 3.9% and the “maximal % inhibition of viability” value [9, 19] was 60.7 ± 5.8%. For the same compound, the “maximal % inhibition of viability” value [9, 20] was 83 ± 5.5%, the “maximal % inhibition of viability” value [9, 21] was 64.3 ± 4.8% and the “maximal % inhibition of viability” value [9, 22] was 60.8 ± 3.6%. The “maximal % inhibition of viability” value [10, 19] was 91.2 ± 0.27%, the “maximal % inhibition of viability” value [10, 20] was 89.6 ± 3.3% and the “maximal % inhibition of viability” value [10, 21] was 90.7 ± 1.4%. For the same compound, the “maximal % inhibition of viability” value [10, 23] was 90 ± 1.3%, the “maximal % inhibition of viability” value [10, 22] was 87.9 ± 1.4% and the “maximal % inhibition of viability” value [11, 19] was 96.3 ± 0.7%. For the same compound, the “maximal % inhibition of viability” value [11, 21] was 91.1 ± 1.4%, the “maximal % inhibition of viability” value [11, 23] was 84 ± 1.2% and the “maximal % inhibition of viability” value [11, 22] was 86.7 ± 1.1%. The “maximal % inhibition of viability” value [12, 19] was 98.67 ± 0.4%, the “maximal % inhibition of viability” value [12, 20] was 89.9 ± 0.76% and the “maximal % inhibition of viability” value [12, 21] was 96.4 ± 1.7%. For the same compound, the “maximal % inhibition of viability” value [12, 23] was 85.8 ± 1.6%, the “maximal % inhibition of viability” value [12, 22] was 88.4 ± 2% and the “maximal % inhibition of viability” value [13, 19] was 97.27 ± 0.59%. The “maximal % inhibition of viability” value [13, 20] was 87.8 ± 1.7%, the “maximal % inhibition of viability” value [13, 21] was 96.13 ± 0.86% and the “maximal % inhibition of viability” value [13, 23] was 90.83 ± 0.76%. The “maximal % inhibition of viability” value [13, 22] was 92.7 ± 1.3%, the “maximal % inhibition of viability” value [14, 19] was 97.77 ± 0.51% and the “maximal % inhibition of viability” value [14, 20] was 89.1 ± 0.91%. The “maximal % inhibition of viability” value [14, 21] was 96.83 ± 0.76%, the “maximal % inhibition of viability” value [14, 23] was 90.3 ± 1.4% and the “maximal % inhibition of viability” value [14, 22] was 91.9 ± 2.2%. The “maximal % inhibition of viability” value [15, 19] was 94.8 ± 1.1%, the “maximal % inhibition of viability” value [15, 20] was 92.2 ± 1.3% and the “maximal % inhibition of viability” value [15, 21] was 93.9 ± 1.9%. The “maximal % inhibition of viability” value [15, 23] was 90 ± 2.3%, the “maximal % inhibition of viability” value [15, 22] was 92.47 ± 0.81% and the “maximal % inhibition of viability” value [16, 19] was 79.7 ± 2.2%. For the same compound, the “maximal % inhibition of viability” value [16, 20] was 64.2 ± 3.3%, the “maximal % inhibition of viability” value [16, 21] was 81.2 ± 0.87% and the “maximal % inhibition of viability” value [16, 23] was 69.7 ± 2.8%. The “maximal % inhibition of viability” value [16, 22] was 81.53 ± 0.67%, the “maximal % inhibition of viability” value [17, 19] was 95.6 ± 0.79% and the “maximal % inhibition of viability” value [17, 20] was 96.6 ± 1.4%. The “maximal % inhibition of viability” value [17, 21] was 94.8 ± 1.3%, the “maximal % inhibition of viability” value [17, 23] was 92 ± 1.2% and the “maximal % inhibition of viability” value [17, 22] was 96.27 ± 0.55%. For the same compound, the “maximal % inhibition of viability” value [18, 19] was 99.57 ± 0.25%, the “maximal % inhibition of viability” value [18, 20] was 98.2 ± 0.56% and the “maximal % inhibition of viability” value [18, 21] was 98.5 ± 1.1%. For the same compound, the “maximal % inhibition of viability” value [18, 23] was 96.8 ± 1% and the “maximal % inhibition of viability” value [18, 22] was 97.87 ± 0.61%.
